row,melting point [°C],Structure (SMILES)
1,235 to 236,CC1(C)OC(=O)Nc2c(Br)cc(-c3ccc(F)c(C#N)c3)cc21
2,162 to 164,CCC1(CC)c2cc(Br)ccc2-c2ccc(I)cc21
3,123 to 124,C=C(CCC(C)C1CCC2(C)C3CCC4C(C)(C)C(O)CCC45CC35CCC12C)C(C)C (configuration not stated)
4,208 to 211,COc1ccc(/C=C/C(=O)N2CC(CCl)c3c2cc(O)c2ncccc32)cc1 (configuration not stated)
5,267 to 269,Cc1cn(C)c2c1N(C(=O)CCl)c1ccccc1NC2=O
6,65 to 68,CC#CCOc1ccc(S(=O)(=O)N(C)C(C(=O)NO)C(C)(C)SCC(C)N(CC)CC)cc1 (configuration not stated)
7,217 to 221,CC(C)(C)OC(=O)Nc1cc(N2CCS(=O)(=O)CC2)c(C#Cc2ccccc2)cc1[N+](=O)[O-]
8,70 to 72,COc1cccc(C(=O)N(C(=O)OCI)N(C(=O)c2cc(C)cc(C)c2)C(C)(C)C)c1C
9,126 to 128,CC1(C)CC(=O)c2c(C3CCC3)sc(-c3nccs3)c2C1
10,119,CC(Nc1ccc(Cc2ccccc2)cc1)C(=O)O (configuration not stated)
11,229,COc1cc2c(=O)n(CCN3CCCC3)c3c4cc5c(cc4nnc3c2cc1OC)OCO5
12,99 to 101,COc1ccc(-n2nc(NC(=O)OC(C)(C)C)c3csc(N)c3c2=O)cc1
13,154 to 157,CC(C)(C)c1cc(-c2nn(CCC(N)=O)c3ncccc23)cc(C(C)(C)C)c1O
14,82,OC(CSC(=S)Nc1ccccn1)c1ccccc1 (configuration not stated)
15,168,CC(=O)OC1CSC(Oc2cnccc2-c2ccc(C(F)(F)F)cc2)C(OC(C)=O)C1OC(C)=O (configuration not stated)
16,153,Cc1cccc(C(=O)CCSC(=S)Nc2ccc(Cl)cn2)c1
17,149 to 151,CCc1cn(C2CC(O)C(CSCc3ccccc3)O2)c(=O)[nH]c1=O (configuration not stated)
18,122 to 125,COC(=O)Cc1cc2c(cc1CC(=O)NCCc1ccc(OC)c(OC)c1)OCO2
19,138 to 139,CC(C)(C)OC(=O)[C@@H]1CNC(=O)N1C(=O)OCc1ccccc1
20,117 to 118,Cc1c(C)c2c(c(C)c1NC(=O)NCC(C)(C)CO)C(c1ccc(C(C)C)cc1)CO2 (configuration not stated)

row,melting point [°C],Structure (SMILES)
1,70,O=C(c1ccc(F)cc1F)C1CCN(CC2=Cc3ccccc32)CC1
2,209 to 212,O=C(O)c1cn(C2CC2)c2nc(Cl)c(F)cc2c1=O
3,87 to 90,NN(CCCCO)c1nc2ccccc2o1
4,82 to 83,Cc1ccc(C)c(OCCCC(C)(C)C(=O)Nc2c(F)cc(F)cc2F)c1
5,167 to 170,Nc1ccc2c(c1Br)C(=O)C1(CC1)O2
6,140,COC(=O)C1C(C)=NC(N2CCCC2)=C(C(=O)OC(C)C)C1c1cccc([N+](=O)[O-])c1 (configuration not stated)
7,207 to 208,CC1CCC2(OC1)OC1CC3C4CCC5CC(OCCO)CCC5(C)C4CCC3(C)C1C2C (configuration not stated)
8,40 to 45,CNCC(O)c1ccc(C)o1 (configuration not stated)
9,94 to 96,O=C(O)CC/C=C\CC[C@@H]1[C@@H](OCc2ccc(-c3ccccc3)cc2)CO[C@@H]1c1cccnc1
10,154 to 155,CC(C)(C)OC(=O)N1CCc2c(n(CCOc3ccccc3)c3c(Cl)cc(Cl)cc23)CC1
11,219,CCOC(=O)C1=C(N)NC(N)=C(C(=O)OCC)C1c1c(OC)ncnc1OC
12,171,CC(C)(C)OC(=O)[C@@H]1N(S(=O)(=O)c2ccc(O)cc2)CCSC1(C)C
13,68.1 to 68.7,C=Cc1cn(-c2c(Cl)cc(C(F)(F)F)cc2Cl)nc1C
14,292 to 295,Cc1cc2c(=O)c3ccccc3oc2c2c1OC(C(=O)O)C2 (configuration not stated)
15,224 to 225,CCCOc1ccccc1-c1nc(O)cc(O)n1
16,142,CCCCC(C(=O)N1CCCCC1)c1ccc(C(=O)O)cc1 (configuration not stated)
17,186 to 189,O=C(Cc1csc(-c2cnccn2)n1)NC1CCN(Cc2ccc(Cl)c(Cl)c2)CC1
18,102 to 104,O=C(O)CCCCCCC1C(=O)CC(=O)C1=O (configuration not stated)
19,280 to 281,Cc1nc2cc(NC(=O)c3cc4cc(C(F)(F)F)ccc4n3Cc3cccc(F)c3)ccn2c1C
20,153 to 155,CN(C)C(=O)NCC1(C)OCCc2c1[nH]c1ccccc21 (configuration not stated)

row,melting point [°C],Structure (SMILES)
1,142,CC(CCC(F)(F)C(C)(C)O)C1CCC2C3CCC4CC(O)CCC4(C)C3CCC12C (configuration not stated)
2,172 to 175,Nc1ccc(OC23CC4CC(CC(C4)C2)C3)cc1
3,146 to 147,CCCn1nc(-c2sc(C(=O)NC3CC3)nc2-c2ccccc2)ccc1=O
4,110 to 113,O=C(O)CC1CCC2(CC1)OCCO2
5,181 to 182,COC(=O)C1=C(C)Nc2ccccc2NC1c1cccc(Cl)c1Cl (configuration not stated)
6,222 to 224,CCC(C)(C)Nc1c(NCc2cc(C)cc(C)c2)c(=O)c1=O
7,80.5 to 81,COC(=O)C1(C(=O)OC)CCC1(C(=O)OC)C(=O)OC
8,115,Cn1c(=O)cc(CCc2cccc(Cl)c2)c2cc(C(O)(c3ccc(Cl)cc3)c3cccnc3)ccc21 (configuration not stated)
9,121 to 122,COCCCNS(=O)(=O)NC(=O)/C(C)=C/c1ccc(OCCOC)cc1Oc1ncc(C(F)(F)F)cc1Cl
10,202 to 204,C[C@@H]([C@@H](O)c1ccc(O)cc1)N1CCC(O)(c2ccccc2)CC1 (relative stereo)
11,100 to 102,CN(CC(CCOS(C)(=O)=O)c1ccc(Cl)c(Cl)c1)C(=O)c1ccccc1 (configuration not stated)
12,224 to 225,O=C(Nc1cccc2c(=O)cc(C(=O)O)oc12)c1cc(Cl)c2c(c1)CC(CCCc1ccccc1)O2 (configuration not stated)
13,107 to 109,CCCC(=O)c1cnc2ccccc2c1Nc1ccccc1C
14,99 to 101,CCOC(=O)CN1CC2CCC(=O)N2C1=O (configuration not stated)
15,268 to 269,CCCNC(=O)c1ccc(-c2nc(=O)c3ccccc3s2)nc1
16,221 to 222,CC(C)Nc1nn(C)c(=O)c2cn(Cc3cccc4ccccc34)cc12
17,122 to 125,Cc1ccc(S(=O)(=O)OCC2Cc3cccc(O)c3O2)cc1 (configuration not stated)
18,130 to 132,O=C(NCC(F)(F)F)C1(CCCCc2ccc(NS(=O)(=O)c3ccccc3)cc2)c2ccccc2-c2ccccc21
19,177 to 179,CCOC(=O)c1cn(C2CC2)c2c(F)c(C)c(F)cc2c1=O
20,135 to 137,CCOC(=O)C1=C(COCC2COC(C)(C)O2)NC(C)=C(C(=O)OC)C1c1cccc(Cl)c1Cl (configuration not stated)

# Continued, compound first:
row,Structure (SMILES),melting point [°C]
1,N#Cc1cccnc1N1CCN(Cc2nc3ccccc3[nH]2)CC1,208 to 210
2,COc1ccc2[nH]cc(/C(C#N)=C/c3cccc(C#N)c3)c2c1,149
3,CCOc1nc(Cl)nc2c1oc1nc(-c3ccccc3)cc(C)c12,131 to 132
4,O=C(O)Cc1cc(Br)ccc1OCc1ccccc1,87 to 88.5
5,N#CN=c1[nH]c2c([N+](=O)[O-])c(Cl)c(Cl)cc2nc1Cl,245 to 255
6,COC(=O)COc1ccc(NC(=O)CCCCCOCc2ccccc2)cc1,64.6 to 67
7,Cc1ccccc1C(=O)c1cccn1C,90 to 92.5
8,CS(=O)(=O)NCCn1c2ccccc2c(=O)c2ccccc21,226 to 227
9,O=[N+]([O-])c1ccc(C=C(Cl)Cl)o1,74 to 75
10,COC(=O)C1=Cc2ccccc2OC1,56 to 57
11,Oc1ccc2nc(Nc3ccccc3)cnc2c1,211 to 213
12,CC(O)c1ccc(-c2ccnc(Nc3ccc4c(c3)OCCO4)c2)cc1 (configuration not stated),55.9 to 61.5
13,Clc1cccc(-c2cnccn2)c1,53 to 54
14,FC(F)(F)c1cccnc1-n1c(/C=C/c2ccccc2)nc2ccccc21,156 to 157
15,O=c1[nH]c(CCc2ccccc2OCc2ccccc2)ccc1-c1nnn[nH]1,211 to 213
16,O=[N+]([O-])c1cn(-c2cccnc2)nc1-c1ccccc1,144 to 146
17,N#CCCNC(=O)Cc1c(C(=O)c2ccccc2)[nH]c2cc(Cl)ccc12,233 to 234
18,CN1CC(=O)N(c2cc(Cl)nc(Cl)c2)C1=O,134
19,CC(=N)NC(=O)Nc1ccc(C#N)c(Cl)c1,182 to 183
20,CCNc1ccc(-c2cc3ccccc3o2)cc1,126 to 128
21,COC(=O)c1cc2ccc3c(c2c(-c2ccc4c(c2)OCO4)c1C(=O)OC)OCO3,157 to 159

row,Structure (SMILES),melting point [°C]
1,Cn1nc(-c2ccccc2)c(CC(=O)O)c1-c1ccccc1,170 to 172
2,CNCC#CC1=Cc2ccccc2Sc2ccc(Cl)cc21,92 to 94
3,CCn1cc(C2(c3cccc(-c4cccnc4F)c3)N=C(N)N3CCCN=C32)cn1 (configuration not stated),91 to 115
4,CSc1ccc(-c2cc(-c3nc4ccccc4c(=O)n3-c3ccc(C)cc3)sc2N2CCOCC2)cc1,238 to 240
5,O=C(O)Cc1ccccc1SCc1ccc(Cl)cc1,149 to 151
6,O=C(Nc1ccccc1OC(=O)c1ccccc1)c1cc(Cl)c(OC(=O)c2ccccc2)c(Cl)c1,157 to 160
7,Cc1ccc(-c2cnc(N)c(C(=O)Nc3cccnc3)n2)cc1C,178 to 182
8,NC(=O)Cc1c(C(=O)c2ccccc2)[nH]c2cc(Cl)ccc12,234 to 237
9,N#Cc1c(N)cccc1Sc1cccc(N)c1,99 to 100
10,O=c1ccn(-c2cccc(C(F)(F)F)c2)nc1-c1ccoc1-c1ccccc1,159 to 163
11,Cc1ccccc1C(=O)Nc1ccc(C(=O)N2Cc3ccc(Cl)n3Cc3ccccc32)cc1,185 to 187
12,CC(=Cc1ccccc1)n1c(=O)n(CCCCCl)c2ccccc21,90
13,COc1cc(CCc2cnc(N)nc2N)cc(OC)c1OC,155 to 157
14,C=Cc1cc(S(=O)(=O)c2ccc(N)cc2)cc(N2CCCC2)n1,181 to 182
15,O=C(Cl)CC(c1ccccc1)c1ccccc1,41 to 43
16,O=S(CCl)c1ccc(-n2cnnn2)cc1 (configuration not stated),147 to 149
17,NC(=O)N1C(=O)C(C(=O)c2ccco2)c2ccc(F)cc21 (configuration not stated),231 to 235
18,CC(=O)Nc1ccc([N+]([O-])=NC#N)cc1,240 to 242
19,COc1cccc(Oc2ccc([N+](=O)[O-])c(C(=O)O)c2)c1,146 to 151
20,CCN(c1nc(NCCO)nc(N(CC)C2CC(C)(C)NC(C)(C)C2)n1)C1CC(C)(C)NC(C)(C)C1,184 to 185
21,O=C(O)Cc1ccc(OCc2ccccc2)c(Cl)c1,121 to 123

# — a melting point compilation (Tetko et al.; mined from patent text by program, amines drawn as free bases though some values may be those of a salt)
